Laboratory results from patent US9487483B2, “Complement pathway modulators and uses thereof” (priority 2012, dated 2016).

Molecular target: Recombinant human factor D (Homo sapiens (Human), UniProt P00746)
Assay: biochemical
Format: biochemical
Settings: Factor D inhibition data using Method 1; substrate Z-Lys-thiobenzyl, fluorescence readout; read-out: IC50
Procedure: Human Complement Factor D Assay: Method 1
Recombinant human factor D (expressed in E. coli and purified using standard methods) at 10 nM concentration is incubated with test compound at various concentrations for 1 hour at room temperature in 0.1 M Hepes buffer, pH 7.5, containing 1 mM MgCl2, 1 M NaCl and 0.05% CHAPS. […] IC50 values are calculated from percentage of inhibition of complement factor D-activity as a function of test compound concentration.

Chain of Recombinant human factor D (P00746 26-253): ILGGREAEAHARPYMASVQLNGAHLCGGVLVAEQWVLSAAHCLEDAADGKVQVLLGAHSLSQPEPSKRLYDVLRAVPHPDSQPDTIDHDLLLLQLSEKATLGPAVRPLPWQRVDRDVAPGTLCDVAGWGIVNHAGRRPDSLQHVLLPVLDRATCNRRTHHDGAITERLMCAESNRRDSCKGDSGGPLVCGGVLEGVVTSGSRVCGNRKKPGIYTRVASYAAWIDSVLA

Row | SMILES | IC50 [nM]
1 | CC1(C)CCC[C@@H](NC(=O)[C@@H]2C[C@H]3C[C@H]3N2C(=O)Cn2nc(C(N)=O)c3ccc(F)cc32)C1 [Example 60, 1-{2-[(1R,3S,5R)-3-((R)-3,3-Dimethyl-cyclohexylcarbamoyl)-2-aza-bicyclo[3.1.0]hex-2-yl]-2-oxo-ethyl}-6-fluoro-1H-indazole-3-carboxylic acid amide] | 22
2 | CC1(C)CCC[C@@H](NC(=O)[C@@H]2C[C@H]3C[C@H]3N2C(=O)Cn2nc(C(N)=O)c3ccc(Cl)cc32)C1 [Example 62, 6-Chloro-1-{2-[(1R,3S,5R)-3-((R)-3,3-dimethyl-cyclohexylcarbamoyl)-2-aza-bicyclo[3.1.0]hex-2-yl]-2-oxo-ethyl}-1H-indazole-3-carboxylic acid amide] | 24
3 | Cc1cc2c(C(N)=O)nn(CC(=O)N3[C@@H]4C[C@@H]4C[C@H]3C(=O)N[C@@H]3CCCC(C)(C)C3)c2cn1 [Example 63, 1-{2-[(1R,3S,5R)-3-((R)-3,3-Dimethyl-cyclohexylcarbamoyl)-2-aza-bicyclo[3.1.0]hex-2-yl]-2-oxo-ethyl}-5-methyl-1H-pyrazolo[3,4-c] pyridine-3-carboxylic acid amide] | 49
4 | CCc1cc2c(C(N)=O)nn(CC(=O)N3[C@@H]4C[C@@H]4C[C@H]3C(=O)N[C@@H]3CCCC(C)(C)C3)c2cn1 [Example 64, 1-{2-[(1R,3S,5R)-3-((R)-3,3-Dimethyl-cyclohexylcarbamoyl)-2-aza-bicyclo[3.1.0]hex-2-yl]-2-oxo-ethyl}-5-ethyl-1H-pyrazolo[3,4-c]pyridine-3-carboxylic acid amide] | 24
5 | CC(=O)c1cn(CC(=O)N2[C@@H]3C[C@@H]3C[C@H]2C(=O)N[C@@H]2CCCC(C)(C)C2)c2nnccc12 [Example 66, (1R,3S,5R)-2-[2-(5-Acetyl-pyrrolo[2,3-c]pyridazin-7-yl)-acetyl]-2-aza-bicyclo[3.1.0] hexane-3-carboxylic acid ((R)-3,3-dimethyl-cyclohexyl)-amide] | 1210
6 | CO[C@@H]1CCC[C@@H](NC(=O)[C@@H]2C[C@H]3C[C@H]3N2C(=O)Cn2nc(C(C)=O)c3cc(OCc4ncccn4)ccc32)C1 [Example 69, (1R,3S,5R)-2-{2-[3-Acetyl-5-(pyrimidin-2-ylmethoxy)-indazol-1-yl]-acetyl}-2-aza-bicyclo [3.1.0]hexane-3-carboxylic acid ((1R,3R)-3-methoxy-cyclohexyl)-amide] | 143
7 | CC[C@@H]1CCC[C@H](NC(=O)[C@@H]2C[C@H]3C[C@H]3N2C(=O)Cn2nc(C(N)=O)c3ccncc32)C1 [Example 72, 1-{2-[(1R,3S,5R)-3-((1S,3R)-3-Ethyl-cyclohexylcarbamoyl)-2-aza-bicyclo[3.1.0]hex-2-yl]-2-oxo-ethyl}-1H-pyrazolo[3,4-c]pyridine-3-carboxylic acid amide] | 1700
8 | CC[C@H]1CCC[C@@H](NC(=O)[C@@H]2C[C@H]3C[C@H]3N2C(=O)Cn2nc(C(N)=O)c3ccncc32)C1 [Example 73, 1-{2-[(1R,3S,5R)-3-((1R,3S)-3-ethyl-cyclohexylcarbamoyl)-2-aza-bicyclo[3.1.0]hex-2-yl]-2-oxo-ethyl}-1H-pyrazolo[3,4-c]pyridine-3-carboxylic acid amide] | 29
9 | CC1(C)CCC[C@@H](NC(=O)[C@@H]2C[C@@H](F)CN2C(=O)Cn2nc(C(N)=O)c3ccccc32)C1 [Example 82, 1-{2-[(2S,4R)-2-((R)-3,3-Dimethyl-cyclohexylcarbamoyl)-4-fluoro-pyrrolidin-1-yl]-2-oxo-ethyl}-1H-indazole-3-carboxylic acid amide] | 38
10 | CC[C@H]1CCC[C@@H](NC(=O)[C@@H]2C[C@H]3C[C@H]3N2C(=O)Cn2nc(C(N)=O)c3cc(C)ncc32)C1 [Example 83, 1-{2-[(1R,3S,5R)-3-((1R,3S)-3-Ethyl-cyclohexylcarbamoyl)-2-aza-bicyclo[3.1.0]hex-2-yl]-2-oxo-ethyl}-5-methyl-1H-pyrazolo[3,4-c]pyridine-3-carboxylic acid amide] | 50
11 | CO[C@H]1[C@@H](C(=O)N[C@@H]2CCCC(C)(C)C2)N(C(=O)Cn2nc(C(N)=O)c3ccccc32)C[C@@H]1F [Example 84, 1-{2-[(2S,3S,4S)-2-((R)-3,3-Dimethyl-cyclohexylcarbamoyl)-4-fluoro-3-methoxy-pyrrolidin-1-yl]-2-oxo-ethyl}-1H-indazole-3-carboxylic acid amide] | 60
12 | CO[C@H]1[C@@H](C(=O)N[C@H]2CCCC(C)(C)C2)N(C(=O)Cn2nc(C(N)=O)c3ccccc32)C[C@@H]1F [Example 85, 1-{2-[(2S,3S,4S)-2-((S)-3,3-Dimethyl-cyclohexylcarbamoyl)-4-fluoro-3-methoxy-pyrrolidin-1-yl]-2-oxo-ethyl}-1H-indazole-3-carboxylic acid amide] | 585
13 | CC1(C)CCC[C@@H](NC(=O)[C@@H]2[C@@H]3C[C@@H]3CN2C(=O)Cn2nc(C(N)=O)c3ccncc32)C1 [Example 86, 1-{2-[(1R,2S,5S)-2-((R)-3,3-Dimethyl-cyclohexylcarbamoyl)-3-aza-bicyclo[3.1.0]hex-3-yl]-2-oxo-ethyl}-1H-pyrazolo[3,4-c]pyridine-3-carboxylic acid amide] | 58
14 | CC1(C)CCC[C@H](NC(=O)[C@@H]2[C@@H]3C[C@@H]3CN2C(=O)Cn2nc(C(N)=O)c3ccncc32)C1 [Example 87, 1-{2-[(1R,2S,5S)-2-((S)-3,3-Dimethyl-cyclohexylcarbamoyl)-3-aza-bicyclo[3.1.0]hex-3-yl]-2-oxo-ethyl}-1H-pyrazolo[3,4-c]pyridine-3-carboxylic acid amide] | 6620

Same assay, conditions: read-out: IC50

Row | SMILES | IC50 [nM]
15 | Cc1nccc2c(C(N)=O)nn(CC(=O)N3[C@@H]4C[C@@H]4C[C@H]3C(=O)N[C@@H]3CCCC(C)(C)C3)c12 [Example 65, 1-{2-[(1R,3S,5R)-3-((R)-3,3-Dimethyl-cyclohexylcarbamoyl)-2-aza-bicyclo[3.1.0]hex-2-yl]-2-oxo-ethyl}-7-methyl-1H-pyrazolo[3,4-c]pyridine-3-carboxylic acid amide] | 38
16 | CC1(C)CCC[C@H](NC(=O)[C@@H]2C[C@@H](F)CN2C(=O)Cn2nc(C(N)=O)c3ccncc32)C1 [Example 70, 1-{2-[(2S,4R)-2-((S)-3,3-Dimethyl-cyclohexylcarbamoyl)-4-fluoro-pyrrolidin-1-yl]-2-oxo-ethyl}-1H-pyrazolo[3,4-c]pyridine-3-carboxylic acid amide] | 2090
17 | CC1(C)CCC[C@@H](NC(=O)[C@@H]2C[C@@H](F)CN2C(=O)Cn2nc(C(N)=O)c3ccncc32)C1 [Example 71, 1-{2-[(2S,4R)-2-((R)-3,3-Dimethyl-cyclohexylcarbamoyl)-4-fluoro-pyrrolidin-1-yl]-2-oxo-ethyl}-1H-pyrazolo[3,4-c]pyridine-3-carboxylic acid amide] | 41
18 | CC1=CC(NC(=O)[C@@H]2C[C@H]3C[C@H]3N2C(=O)Cn2nc(C(N)=O)c3ccccc32)CCC1 (stereo partly drawn) [Example 74, 1-{2-[(1R,3S,5R)-3-(3-Methyl-cyclohex-2-enylcarbamoyl)-2-aza-bicyclo[3.1.0]hex-2-yl]-2-oxo-ethyl}-1H-indazole-3-carboxylic acid amide] | 132
19 | CCc1cc2c(C(N)=O)nn(CC(=O)N3C[C@H](F)C[C@H]3C(=O)N[C@@H]3CCCC(C)(C)C3)c2cn1 [Example 81, 1-{2-[(2S,4R)-2-((R)-3,3-Dimethyl-cyclohexylcarbamoyl)-4-fluoro-pyrrolidin-1-yl]-2-oxo-ethyl}-5-ethyl-1H-pyrazolo[3,4-c]pyridine-3-carboxylic acid amide] | 39
